Experimental data reported in US20050090669A1, “Aminoalcohol derivatives as beta-3 adrenergic receptor agonists” (priority 2002, published 2005).

Tested on: Increase in Intravesical Pressure Induced by Carbachol in Anesthetized Dog
Test: Effect on the increase in intravesical pressure induced by carbachol in anesthetized dog
Format: in vivo
Details: 0.032 mg/kg intravenously, 30 minutes before carbachol (1.8 μg/kg); female Beagle dogs under halothane anesthesia
Protocol: Effect on the Increase in Intravesical Pressure Induced by Carbachol in Anesthetized Dog
Female Beagle dogs weighing 8.0-15.0 kg were fasted for 24 hours and maintained under halothane anesthesia. A 12 F Foley catheter was lubricated with water soluble jelly, inserted into the urethral orifice and advanced approximately 10 cm until the balloon tip was placed well inside the bladder. The balloon was then inflated with 5 ml of room air and catheter slowly withdrawn just part the first resistance that is felt at the bladder neck. Urine was completely drained out through the catheter, and 30 ml of biological saline was infused. The catheter was connected to pressure transducer, and intravesical pressure (IVP) was continuously recordered. The test compound was administered intravenously at 30 minutes before the administration of carbachol (1.8 μg/kg). Percent inhibition of IVP increase by test compound was calculated by dividing IVPa (IVP increase induced by carbachol after test compound administaration) by IVPb (IVP increase induced by carbachol just before test compound administration).

For `COc1ccc(Oc2ccc3c(c2)C[C@@H](NC[C@H](O)c2ccc(Cl)cc2)CC3)cc1C(=O)O.Cl` [Test Compound (1), 5-[[(7S)-7-[[(2R)-2-(4-Chlorophenyl)-2-hydroxyethyl]-amino]-5,6,7,8-tetrahydro-2-naphthalenyl]oxy]-2-methoxybenzoic Acid Hydrochloride], the “Percent inhibition of IVP increase” value was 54%.
